Measurements from US20060069040A1, “GHB compositions” (priority 2004, published 2006).
Like-named read-outs stand apart in the source and are kept apart here.

Assays:
CD-1 male mice [1] = assay: Passivity test (sleep induction and sleep time); assay type: in vivo; settings: for Effect on GHB sleep time: Example 6: 7.93 mmol/kg of named agent mixed in solution with GHB 7.93 mmol/kg, oral gavage, 8 mice; for Effect on GHB induced sleep time: 800 mg/kg i.p. of named compound followed immediately by GHB 800 mg/kg i.p.; for GHB induced sleep time: n=6/group, GHB 800 mg/kg i.p. alone or immediately after 800 mg/kg i.p. of the named compound; for Passivity test scores (2-8): 10 minutes after injection, 6 non-fasting mice, 0-normal, 8-no struggle
Description: (§1) CD-1 male mice (30-40 g) were housed 3 to 4 per cage in the animal care facility on a 12 hour light dark cycle with free access to water and food for at least 1 week before testing.
The passivity test developed by Irwing was used to determine sleep time. After GHB administration, the mice were placed in an unusual position and a score of 2, 4, 6, or 8 was given when the mice ceased to struggle against respectively being suspended vertically, rotated horizontally onto their backs, suspended by their hind limbs or suspended by their forelimbs. Scores on the passivity test were determined every 10 minutes after GHB administration. […] The time between scores of 8 and 2 was defined as the total sleep time.
(§2) Statistical significance between control and treated groups at each time point in the present study was determined by student's t-test. Note that values of motor activity were expressed as a percentage of the baseline value which was normalized to 100%.
The optimal dose of GHB for inducing sleep was determined with the passivity test. GHB was dissolved in 0.9% NaCl and 1% Tween 80 and delivered intraperitoneally (i.p.) to 4 groups of 6 mice that had not been fasting. Each group received either 200 mg/kg, 400 mg/kg, 600 mg/kg and 800 mg/kg. […] For this reason, this dose was used in the initial exploratory studies.

[2] = previous work (ref. 7); rats, tracer doses of GHB, intravenous infusion; cited from earlier work
CD-1 male mice [3] = assay type: in vivo; settings: for Effect on GHB induced motor inhibition: Example 3: named compound 800 mg/kg i.p. 2 or 15 minutes before GHB 800 mg/kg i.p.; for Effect on motor depression by oral GHB: Example 5: named compound 1200 mg/kg i.p. with GHB 1200 mg/kg orally
Description: as §1
The Rota-rod is a validated and sensitive tool that has been developed to document neurological deficits after pharmacological treatments. In this test, mice are placed on an accelerating Rota-rod whose revolutions per minute increase from 4 to 40 cycles per minute in about 4 minutes. The time it takes for the mice to fall off the rod is the end point of the test. Initially, the mice were given 3 practice runs on the rod to familiarize themselves with the test procedure. The time that mice remained on the rod was usually between five and ten minutes. A baseline measure was then made, the test drug given and the test procedure run every 20 minutes starting at time 0, immediately after drug administration. The mice were tested for 160 minutes after GHB administration although in some experiments recordings were made for as long as 280 minutes. Motor activity was expressed as a percentage of the baseline value. The time it took the mice to fall off the rod at a given time point after drug administration was divided by the time it took at baseline.
as §2

[4] = man, GHB given orally; cited from earlier work
male Wistar rats [5] = assay: Core body temperature (Tb) and locomotor activity (LMA) recording by implanted transmitter; assay type: in vivo; settings: IP dosing at ZT19, GHB 200 mg/kg in all drug conditions, comparators and ZT hours in the value
male Wistar rats [6] = assay: EEG/EMG sleep recording after IP dosing; settings: for NR bout duration (NRBD): lights on
[7] = cited from earlier work
[8] = rats, IP dosing at ZT19, comparators and ZT hours in the value
[9] = Table 2: i.p., all compounds 800 mg/kg, mice not fasting, n=6, 2′ or 15′ in label = preincubation before GHB
[10] = Table 3: oral, GHB 800 mg/kg, PA 66 mg/kg, mice fasting 12 hours, n=6
[11] = Table 4: GHB orally, GAL/GL/GA intraperitoneally, all 1200 mg/kg, mice fasting 1 hour, n=6

## O=C([O-])[C@@H](O)[C@@H](O)[C@H](O)[C@@H](O)CO.[Na+] [G, L-gulonic acid sodium salt]
CD-1 male mice [1]
  Effect on GHB sleep time: almost doubled the sleep time
[2]
  Effect on plasma half-life of GHB: can extend the plasma half-life of GHB
CD-1 male mice [3]; mouse, in vivo, po
  Effect on motor inhibition produced by GHB: significantly prolonged and deepened the motor inhibition produced by GHB
  Effect on motor performance on its own: had no effect on motor performance
  Percent of motor activity after GHB administration, 0′: 168 ± 5%
  Percent of motor activity after GHB administration, 20′: 50 ± 24%
  Percent of motor activity after GHB administration, 40′: 303 ± 12%
  Percent of motor activity after GHB administration, 60′: 183 ± 4%
  Percent of motor activity after GHB administration, 80′: 156 ± 2%
  Percent of motor activity after GHB administration, 100′: 66 ± 9%
  Percent of motor activity after GHB administration, 160′: 126 ± 3%
  Percent of motor activity after GHB administration, 220′: 303 ± 23%
  Percent of motor activity after GHB administration, 280′: 141 ± 5%

## O=C([O-])[C@H](O)[C@@H](O)[C@H](O)[C@H](O)CO.[Na+] [GA, D-gluconic acid sodium salt]
CD-1 male mice [1]; non-fasting mice
  Effect on GHB induced sleep time: did not show an increase in GHB induced sleep time

## O=C1O[C@H](CO)[C@@H](O)[C@H](O)[C@H]1O [GAL, D-gluconic acid lactone]
CD-1 male mice [1]
  Effect on GHB sleep time: appeared to increase the sleep time
CD-1 male mice [1]; non-fasting mice
  GHB induced sleep time: 155 ± 11 min
CD-1 male mice [3]; mice not fasting
  Effect on GHB induced motor inhibition: most effectively potentiated GHB induced motor inhibition with significant effects at the 160 minute mark
CD-1 male mice [3]
  Effect on motor depression by oral GHB: further significantly enhanced
CD-1 male mice [3]; Example 6: named agent 7.93 mmol/kg orally together with GHB 7.93 mmol/kg
  Effect on motor inhibition produced by GHB: neither oral gluconic acid lactone or gulonolactone augmented the depressant effects of GHB

## O=C[C@H](O)[C@@H](O)[C@H](O)[C@H](O)C(=O)[O-].[Na+] [GCA, D-glucuronic acid sodium salt]
CD-1 male mice [1]; non-fasting mice
  Effect on GHB induced sleep time: did not show an increase in GHB induced sleep time
[2]
  Effect on plasma half-life of GHB: decreased the plasma half-life of GHB
CD-1 male mice [3]; mice not fasting
  Effect on GHB induced motor inhibition: potentiated and prolonged the motor inhibition produced by GHB

## O=C([O-])CCCO.[Na+] [GHB, gamma-hydroxybutyrate sodium salt]
[4]
  Plasma half-life: about 45 minutes
CD-1 male mice [1]; GHB 200 mg/kg i.p.
  Passivity test scores (2-8): 0
CD-1 male mice [1]; GHB 400 mg/kg i.p.
  Passivity test scores (2-8): 2 ± 0.38
CD-1 male mice [1]; GHB 600 mg/kg i.p.
  Passivity test scores (2-8): 4 ± 0.25
CD-1 male mice [1]; GHB 800 mg/kg i.p.
  Passivity test scores (2-8): 8 ± 0.42
CD-1 male mice [1]; GHB 800 mg/kg i.p., non-fasting mice
  Time to reliably induce sleep: ≤ 10 min
CD-1 male mice [1]; Table 5: orally, all compounds 7.93 mmol/kg, mice fasting 24 hours, n=8/group, mean ± S.E.M.
  Sleep time: 35 ± 10 min
CD-1 male mice [1]; non-fasting mice
  GHB induced sleep time: 96.5 ± 5 min
Male Wistar rats [5]
  Locomotor activity (LMA), hourly average: significantly lower LMA compared to vehicle (ZT21)
Male Wistar rats [6]; immediately following IP dosing, 8 rats
  Rats that displayed SW activity: Seven of 8
Male Wistar rats [6]; rats, IP dosing at ZT19, GHB 200 mg/kg in all drug conditions
  Spike and wave (SW) activity in the EEG: elicited spike and wave activity (SW) in the EEG during the first hour following dosing
Male Wistar rats [6]; [8]
  Time spent awake (W), hourly: reduced W compared to vehicle during ZT 21
  Time spent in non-REM (NR) sleep, hourly: significantly greater than vehicle during ZT 21
Male Wistar rats [6]; rats, ZT 1 and 3
  NR bout duration (NRBD): increased NRBD compared to GHB+L-gul (ZT 1, 3), GHB+PA (60 mg/kg) (ZT 1, 3) and GHB+PA (120 mg/kg) (ZT 3)
Male Wistar rats [6]; rats, ZT 5
  NR bout duration (NRBD): significantly decreased NRBD during ZT 5 compared to GHB+L-gul and GHB+PA (120 mg/kg)
CD-1 male mice [3]; GHB 1200 mg/kg orally, mice
  Seizure-like activity: appeared to induce seizure-like activity in many of the mice
CD-1 male mice [3]; [9]
  Percent of motor activity after GHB administration, 20′: 0 ± 0%
  Percent of motor activity after GHB administration, 40′: 0 ± 0%
  Percent of motor activity after GHB administration, 60′: 0 ± 0%
  Percent of motor activity after GHB administration, 80′: 20 ± 2%
  Percent of motor activity after GHB administration, 100′: 35 ± 12%
  Percent of motor activity after GHB administration, 120′: 65 ± 5%
  Percent of motor activity after GHB administration, 140′: 113 ± 20%
  Percent of motor activity after GHB administration, 160′: 124 ± 20%
CD-1 male mice [3]; Table 2: i.p., all compounds 800 mg/kg, mice not fasting, n=6, 2′ or 15′ in label = preincubation before GHB, % of baseline, mean ± S.E.M.
  Percent of motor activity after GHB administration, 0′: 31 ± 7%
CD-1 male mice [3]; [10]
  Percent of motor activity after GHB administration (oral), 20′: 0 ± 0%
  Percent of motor activity after GHB administration (oral), 40′: 7 ± 3%
  Percent of motor activity after GHB administration (oral), 60′: 12 ± 6%
  Percent of motor activity after GHB administration (oral), 80′: 20 ± 8%
  Percent of motor activity after GHB administration (oral), 100′: 26 ± 5%
  Percent of motor activity after GHB administration (oral), 160′: 86 ± 1%
  Percent of motor activity after GHB administration (oral), 220′: 90 ± 8%
  Percent of motor activity after GHB administration (oral), 280′: 100 ± 7%
CD-1 male mice [3]; [11]
  Percent of motor activity after GHB administration, 20′: 27 ± 19%
  Percent of motor activity after GHB administration, 40′: 0 ± 0%
  Percent of motor activity after GHB administration, 60′: 3 ± 2%
  Percent of motor activity after GHB administration, 80′: 4 ± 1%
  Percent of motor activity after GHB administration, 100′: 5 ± 4%
  Percent of motor activity after GHB administration, 160′: 21 ± 10%
  Percent of motor activity after GHB administration, 220′: 61 ± 12%
CD-1 male mice [3]; Table 4: GHB orally, GAL/GL/GA intraperitoneally, all 1200 mg/kg, mice fasting 1 hour, n=6, mean ± S.E.M.
  Percent of motor activity after GHB administration, 0′: 58 ± 9%
CD-1 male mice [3]; mouse, in vivo
  Duration of reproducible decrease in motor activity: more than 100 minutes
  Percent of motor activity after GHB administration (oral), 0′: 51 ± 1%
CD-1 male mice [3]; mouse, in vivo, po
  Percent of motor activity after GHB administration, 0′: 94 ± 9%
  Percent of motor activity after GHB administration, 20′: 2 ± 2%
  Percent of motor activity after GHB administration, 40′: 0 ± 0%
  Percent of motor activity after GHB administration, 60′: 4 ± 1%
  Percent of motor activity after GHB administration, 80′: 10 ± 2%
  Percent of motor activity after GHB administration, 100′: 22 ± 7%
  Percent of motor activity after GHB administration, 160′: 104 ± 26%
  Percent of motor activity after GHB administration, 220′: 122 ± 23%
  Percent of motor activity after GHB administration, 280′: 117 ± 13%
CD-1 male mice [3]; oral GHB at 1200 mg/kg, mice
  Duration of depressed motor activity: at least 220 minutes

## O=C1O[C@H]([C@@H](O)CO)[C@H](O)[C@@H]1O [GL, L-gulono-γ-lactone]
CD-1 male mice [1]
  Effect on GHB sleep time: appeared to increase the sleep time
CD-1 male mice [3]
  Effect on motor depression by oral GHB: further significantly enhanced
CD-1 male mice [3]; mouse, in vivo, po
  Effect on motor inhibition produced by GHB: neither oral gluconic acid lactone or gulonolactone augmented the depressant effects of GHB

## O=C(O)Cc1ccccc1 [PA, phenylacetic acid]
CD-1 male mice [3]; Example 4: phenylacetic acid […] mg/kg mixed in solution with GHB 800 mg/kg, oral, vs GHB 800 mg/kg oral alone
  Effect on inhibitory effects of GHB on motor activity: significantly intensified and prolonged the inhibitory effects of GHB on motor activity

## O=C([O-])Cc1ccccc1.[Na+] [phenylacetate sodium salt]
[7]
  Solubility in saline: can be readily dissolved in saline
